Legend:
[1] = tested on: metastatic melanoma; details: 38 or 120 patients, phase 3 trial, metastatic melanoma progressed after ipilimumab; cited from earlier work
[2] = Plasma pharmacokinetics of lenvatinib; details: human, in vivo
Description: Tmax, Cmax, Ctrough, AUC0-t, CL (total body clearance from plasma), Vss (volume of distribution at steady […]), and t1/2 were evaluated.
Baseline and demographic variables including age, gender, race, height, weight, and ECOG performance score were summarized using descriptive statistics. […] Pearson and Spearman correlation coefficients were calculated between pharmacokinetic parameters and serum biomarkers at different time points compared with baseline to examine the correlation between drug exposure and biomarkers. Univariate and multivariate Cox proportional hazards models and log-rank tests were used to examine the relationship between PFS and baseline (and change from baseline) concentrations in angiogenesis and apoptosis biomarkers. Cumulative chi-square test was used to examine the correlation between mutation/serum biomarkers and best overall response. Pearson and Spearman correlation coefficients were also calculated between percent MTS (defined as percent change in sum of longest diameter from baseline to nadir using RECIST criteria) and serum biomarkers at different time points compared with baseline.

[3] = tested on: solid-tumor patients; details: phase 1 studies; cited from earlier work

Compound	Objective response rate [1]	AUC(0-t) ([2]; Geometric mean (%CV), DL1 lenvatinib 20 mg + TMZ 100 mg/m2, Cycle 1/Day 1, n = 6)	AUC(0-t) ([2]; Geometric mean (%CV), DL1 lenvatinib 20 mg + TMZ 100 mg/m2, Cycle 2/Day 1, n = 4)	AUC(0-t) ([2]; Mean (SD), DL3 lenvatinib 24 mg + TMZ 150 mg/m2, Cycle 1/Day 1, n = 22)	AUC(0-t) ([2]; Mean (SD), DL3 lenvatinib 24 mg + TMZ 150 mg/m2, Cycle 2/Day 1, n = 18)	Tmax ([2]; Median tmax, range across the cohorts)	Maximum tolerated dose (MTD) [3]
nivolumab: anti-PD1 receptor immune checkpoint inhibitor monoclonal antibody	31.7%						
COc1cc2nccc(Oc3ccc(NC(=O)NC4CC4)c(Cl)c3)c2cc1C(N)=O [Lenvatinib]		3120 ng·h/mL	4120 ng·h/mL	3940 ng·h/mL	4740 ng·h/mL	1 to 8 h	25 mg/day
